Measurements as given in DBAASP.
Converted amounts (≈) assume the structure as drawn.

Columns and labels:
Experiment in all cases: ≥ marks a high value that may be exact or a test limit, other limits are often not marked, values filed in µg/mL are converted to µM
[1] = tested on: Fusarium oxysporum MUCL 909
[2] = tested on: Alternaria brassicicola MUCL 20297
[3] = tested on: Saccharomyces cerevisiae TGY 481 pJM600
[4] = tested on: Aspergillus fumigatus
[5] = tested on: Bacillus megaterium MA
[6] = tested on: Neurospora crassa CBS 327-54
[7] = tested on: Fusarium haematococcum 160.2.2
[8] = tested on: Micrococcus luteus A270
[9] = tested on: Fusarium culmorum MUCL 30162
[10] = tested on: Candida albicans
[11] = tested on: Micrococcus luteus ATCC 10240
[12] = tested on: Klebsiella pneumoniae K6 ATCC 700603
[13] = tested on: Clavibacter michiganensis subsp. insidiosus NCPPB 1109
[14] = tested on: Escherichia coli BL21AI
[15] = tested on: Brenneria salicis NCPPB 2530
[16] = tested on: Salmonella enterica subsp. enterica serovar Newport
[17] = tested on: Escherichia coli DSM 10233
[18] = tested on: Escherichia coli DSM 1103
[19] = tested on: Sinorhizobium meliloti ZB314
[20] = tested on: Staphylococcus aureus USA 300
[21] = tested on: Salmonella typhimurium ATCC 23565
[22] = tested on: Klebsiella pneumoniae DSM 681
[23] = tested on: Agrobacterium tumefaciens DSM 3129
[24] = tested on: Bacillus subtilis DSM 347
[25] = tested on: Escherichia coli NCTC 9001
[26] = tested on: Escherichia coli K-12
[27] = tested on: Shigella flexneri CP87
[28] = tested on: Escherichia coli D31
[29] = tested on: Bacillus megaterium QMB 1551
[30] = tested on: Salmonella enterica subsp. enterica serovar Typhimurium ATCC 700408
[31] = tested on: Escherichia coli DC2
[32] = tested on: Pseudomonas syringae pv. tomato NCPPB 1106
[33] = tested on: Spiroplasma citri R8A2
[34] = tested on: Acholeplasma laidlawii A-EF22
[35] = tested on: Pseudomonas aeruginosa PAK
[36] = tested on: Staphylococcus aureus
[37] = tested on: Streptococcus gordonii Challis DL1
[38] = tested on: Streptococcus sanguinis NY101
[39] = tested on: Streptococcus mutans UA159
[40] = tested on: Streptococcus mitis ATCC 903

Compound: CC[C@H](C)[C@H](NC(=O)[C@H](CCCN=C(N)N)NC(=O)[C@H](CCC(=O)O)NC(=O)[C@H](CC(=O)O)NC(=O)CNC(=O)[C@H](CCCN=C(N)N)NC(=O)[C@H](CC(C)C)NC(=O)[C@@H](NC(=O)[C@H](CCC(=O)O)NC(=O)[C@H](Cc1ccccc1)NC(=O)[C@@H]1CSSC[C@H](NC(=O)[C@H](CCCCN)NC(=O)[C@H](CCSC)NC(=O)[C@@H](NC(=O)[C@H](CCC(=O)O)NC(=O)[C@@H](NC(=O)[C@H](CC(=O)O)NC(=O)CNC(=O)[C@H](CCCCN)NC(=O)[C@H](CC(N)=O)NC(=O)[C@H](CCSC)NC(=O)[C@@H]2CCCN2C(=O)[C@H](CO)NC(=O)[C@H](CC(N)=O)NC(=O)[C@@H](NC(=O)[C@@H]2CCCN2C(=O)[C@@H](N)CC(C)C)C(C)C)[C@@H](C)O)C(C)C)C(=O)N[C@@H]([C@@H](C)CC)C(=O)N[C@@H](C(C)C)C(=O)N[C@@H](CCC(=O)O)C(=O)N[C@@H](C(C)C)C(=O)N[C@@H]([C@@H](C)CC)C(=O)N[C@@H](CO)C(=O)N[C@@H](CC(=O)O)C(=O)N[C@@H]([C@@H](C)O)C(=O)N[C@@H](CC(C)C)C(=O)N[C@@H](CO)C(=O)N[C@@H](CCCCN)C(=O)N2CCC[C@H]2C(=O)N[C@@H](CO)C(=O)N2CCC[C@H]2C(=O)N[C@@H](CCSC)C(=O)N2CCC[C@H]2C(=O)N[C@@H](C(C)C)C(=O)N[C@@H](CO)C(=O)N[C@@H](CCCCN)C(=O)N[C@@H](CCC(=O)O)C(=O)N1)[C@@H](C)O)C(=O)N[C@@H](CC(C)C)C(=O)N[C@@H](CO)C(=O)N[C@H](C(=O)N[C@@H](CC(C)C)C(=O)N[C@@H](CCCN=C(N)N)C(=O)N[C@@H](Cc1cnc[nH]1)C(=O)N[C@@H](CCC(N)=O)C(=O)N[C@@H](CC(N)=O)C(=O)N[C@@H](CC(C)C)C(=O)N[C@@H](CC(C)C)C(=O)N[C@@H](CCCCN)C(=O)N[C@@H](CCC(=O)O)C(=O)N[C@@H](CC(C)C)C(=O)N[C@@H](CCC(N)=O)C(=O)N[C@@H](CC(=O)O)C(=O)N[C@@H](CC(C)C)C(=O)N[C@@H](C)C(=O)N[C@@H](CC(C)C)C(=O)N[C@@H](CCC(N)=O)C(=O)NCC(=O)N[C@@H](C)C(=O)N[C@@H](CCCCN)C(=O)N[C@@H](CCC(=O)O)C(=O)N[C@@H](CCCN=C(N)N)C(=O)N[C@H](C(=O)N[C@@H](Cc1cnc[nH]1)C(=O)N[C@@H](CCC(N)=O)C(=O)N[C@@H](CCC(N)=O)C(=O)O)[C@@H](C)O)[C@@H](C)CC [LPVNSPMNKGDTEVMKCIVEVISDTLSKPSPMPVSKECFETLRGDERILSILRHQNLLKELQDLALQGAKERTHQQ]
- MIC [1]: 10 µM (≈ 85.8 µg/mL)
- MIC [2]: 3 µM (≈ 25.8 µg/mL)
- MIC [3]: 10 µM (≈ 85.8 µg/mL)
- MIC [4]: 5 µM (≈ 42.9 µg/mL)
- MIC [5]: 0.2 µM (≈ 1.72 µg/mL)
- MIC [6]: 3 µM (≈ 25.8 µg/mL)
- MIC [7]: 1 µM (≈ 8.58 µg/mL)
- MIC [8]: 2 µM (≈ 17.2 µg/mL)
- MIC [9]: 1 µM (≈ 8.58 µg/mL)
- MIC [10]: 10 µM (≈ 85.8 µg/mL)

Compound: CC[C@H](C)[C@H](NC(=O)[C@H](CCCNC(=N)N)NC(=O)[C@@H]1CCCN1C(=O)[C@H](Cc1cnc[nH]1)NC(=O)[C@@H]1CCCN1C(=O)[C@@H]1CCCN1C(=O)[C@H](CCCNC(=N)N)NC(=O)[C@@H]1CCCN1C(=O)[C@H](CCC(N)=O)NC(=O)[C@@H]1CCCN1C(=O)[C@@H](NC(=O)[C@H](Cc1ccc(O)cc1)NC(=O)[C@@H](NC(=O)[C@@H]1CCCN1C(=O)[C@H](CCCNC(=N)N)NC(=O)[C@H](CC(N)=O)NC(=O)[C@H](CC(N)=O)NC(=O)CN)C(C)C)[C@@H](C)CC)C(=O)O [GNNRPVYIPQPRPPHPRI]
- MIC [11]: 14.8 µM (≈ 31.3 µg/mL)
- MIC [12]: 30.4 µM (≈ 64 µg/mL)
- MIC [13]: 23.7 µM (≈ 50 µg/mL)
- MIC [14]: 0.465 µM (≈ 0.98 µg/mL)
- MIC [15]: 0.0095 µM (≈ 0.02 µg/mL)
- MIC [16]: 0.0949 µM (≈ 0.2 µg/mL)
- MIC [17]: 0.925 µM (≈ 1.95 µg/mL)
- MIC [18]: 0.925 µM (≈ 1.95 µg/mL)
- MIC [19]: 0.0474 µM (≈ 0.0999 µg/mL)
- MIC [20]: ≥ 100 µM
- MIC [21]: 0.0474 µM (≈ 0.0999 µg/mL)
- MIC [22]: 7.41 µM (≈ 15.6 µg/mL)
- MIC [23]: 0.0949 µM (≈ 0.2 µg/mL)
- MIC [24]: ≥ 59.3 µM
- MIC [25]: 0.0474 µM (≈ 0.0999 µg/mL)
- MIC [26]: ≥ 100 µM
- MIC [27]: 0.0474 µM (≈ 0.0999 µg/mL)
- MIC [28]: 30.4 µM (≈ 64 µg/mL)
- MIC [29]: ≥ 71.1 µM
- MIC [30]: 0.949 µM (≈ 2 µg/mL)
- MIC [31]: 1.85 µM (≈ 3.91 µg/mL)
- MIC [32]: 0.0949 µM (≈ 0.2 µg/mL)

Compound: CC(C)C[C@H](NC(=O)[C@H](CC(C)C)NC(=O)[C@H](CCCCN)NC(=O)[C@H](CC(C)C)NC(=O)[C@H](CC(C)C)NC(=O)[C@H](CC(C)C)NC(=O)[C@H](CCCCN)NC(=O)[C@@H](N)CC(C)C)C(=O)N[C@@H](CCCCN)C(=O)O [LKLLLKLLK]
- MIC [33]: ≥ 100 µM
- MIC [34]: ≥ 100 µM

Compound: CC[C@H](C)[C@H](NC(=O)[C@H](Cc1ccccc1)NC(=O)[C@H](Cc1cnc[nH]1)NC(=O)[C@H](CCCCN)NC(=O)[C@@H](NC(=O)[C@@H](N)Cc1ccccc1)[C@@H](C)CC)C(=O)N[C@@H](Cc1cnc[nH]1)C(=O)N[C@@H](CCCN=C(N)N)C(=O)N[C@@H](Cc1ccccc1)C(=O)N[C@@H](CO)C(=O)N[C@@H](C)C(=O)N[C@H](C(=O)N[C@@H](CCCN=C(N)N)C(=O)N[C@@H](Cc1c[nH]c2ccccc12)C(=O)N[C@@H](CCCN=C(N)N)C(=O)N[C@@H](Cc1c[nH]c2ccccc12)C(=O)N[C@@H](CCCN=C(N)N)C(=O)N[C@@H](Cc1c[nH]c2ccccc12)C(=O)N[C@@H](Cc1ccccc1)C(N)=O)[C@@H](C)O [FIKHFIHRFSATRWRWRWF]
- MIC [35]: 23.3 µM (≈ 62.5 µg/mL)
- MIC [36]: 46.7 µM (≈ 125 µg/mL)
- MIC [37]: 11.9 µM (≈ 32 µg/mL)
- MIC [38]: 11.9 µM (≈ 32 µg/mL)
- MIC [39]: 2.99 µM (≈ 8 µg/mL)
- MIC [40]: 5.97 µM (≈ 16 µg/mL)
